The values below are quoted from earlier work in patent US9173940B1, “Mixture of betamethasone and tranilast with a transdermal gel for scar treatment” (PROFESSIONAL COMPOUNDING CENTERS OF AMERICA (PCCA), priority 2014, dated 2015).

The conditions of this series: taken orally.

Structures are written as SMILES.

On to `COc1ccc(/C=C/C(=O)Nc2ccccc2C(=O)O)cc1OC` [Tranilast], for which the oral absorption result is listed as “well-absorbed”.
